Assay [1] has as its target T1, human cannabinoid CB2 receptor (Homo sapiens, UniProt P34972).
T1 construct: expressed in transfected cells; host or cells: Saccharomyces cerevisiae strain MMY23 (cassette integrated at the ura3 locus; chimeric Gpa1/Gαi3)
The assay can be described thus: Cannabinoid CB2 receptor agonist activity, yeast (Saccharomyces cerevisiae) cells expressing the receptor, FDGlu fluorescence. The conditions noted are these: for Emax: read-out: efficacy (Emax relative to HU210) at the cloned human cannabinoid CB2 receptor. It is filed as cell-based. Summed up:
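S. cerevisiae MMY23 expressing human CB2 with a Gpa1/Gαi3 chimeric G-protein were incubated 24 h at 30° C with agonist in selective medium containing 3-aminotriazole and FDGlu, pH 7.0. Growth-linked fluorescein fluorescence (485/535 nm) gave EC50 by four-parameter fit; Emax and EMR expressed relative to HU210.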

The target of assay [2] is T2, human cannabinoid CB1 receptor (Homo sapiens, UniProt P21554).
T2 construct: expressed in transfected cells; host or cells: Saccharomyces cerevisiae strain MMY23 (cassette integrated at the ura3 locus; chimeric Gpa1/Gαi3)
Put plainly: Cannabinoid CB1 receptor agonist activity, yeast (Saccharomyces cerevisiae) cells expressing the receptor, FDGlu fluorescence. To be noted: for Emax: read-out: efficacy (Emax relative to HU210) at the cloned human CB1 receptor. It is filed as cell-based. On the procedure:
The cannabinoid CB1 receptor agonist activity of the compounds of formula (I) was determined in accordance with the following experimental method.
Yeast (Saccharomyces cerevisiae) cells expressing the human cannabinoid CB1 receptor were generated by integration of an expression cassette into the ura3 chromosomal locus of yeast strain MMY23. This cassette consisted of DNA sequence encoding the human CB1 receptor flanked by the yeast GPD promoter to the 5′ end of CB 1 and a yeast transcriptional terminator sequence to the 3′ end of CB1. MMY23 expresses a yeast/mammalian chimeric G-protein alpha subunit in which the C-terminal 5 amino acids of Gpal are replaced with the C-terminal 5 amino acids of human Gαi3 (as described in Brown et al. (2000), Yeast 16:11-22). Cells were grown at 30° C. in liquid Synthetic Complete (SC) yeast media (Guthrie and Fink (1991), Methods in Enzymology, Vol. 194) lacking uracil, tryptophan, adenine and leucine to late logarithmic phase (approximately 6 OD600/ml).
Agonists were prepared as 10 mM stocks in DMSO. EC50 values (the concentration required to produce 50% maximal response) were estimated using dilutions of between 3- and 5-fold (BiomekFX, Beckman) into DMSO. Agonist solutions in DMSO (1% final assay volume) were transferred into black, clear bottom, microtitre plates from NUNC (96- or 384-well). Cells were suspended at a density of 0.2 OD600/ml in SC media lacking histidine, uracil, tryptophan, adenine and leucine and supplemented with 10 mM 3-aminotriazole, 0.1M sodium phosphate pH 7.0, and 20 μM fluorescein di-β-D-glucopyranoside (FDGlu). This mixture (50 ul per well for 384-well plates, 200 ul per well for 96-well plates) was added to agonist in the assay plates (Multidrop 384, Labsystems). After incubation at 30° C. for 24 hours, fluorescence resulting from degradation of FDGlu to fluorescein due to exoglucanase, an endogenous yeast enzyme produced during agonist-stimulated cell growth, was determined using a Spectrofluor microtitre plate reader (Tecan; excitation wavelength: 485 nm; emission wavelength: 535 nm). Fluorescence was plotted against compound concentration and iteratively curve fitted using a four parameter fit to generate a concentration effect value. Efficacy (Emax) was calculated from the equation […]
where Max[compound X] and Min[compound X] are the fitted maximum and minimum respectively from the concentration effect curve for compound X, and Max[HU210] and Min[HU210] are the fitted maximum and minimum respectively from the concentration effect curve for (6aR,10aR)-3-(1,1′-Dimethylheptyl)-6a,7,10,10a-tetrahydro-1 hydroxy-6,6-dimethyl-6H-dibenzo[b,d]pyran-9-methanol (HU210; available from Tocris). Equieffective molar ratio (EMR) values were calculated from the equation […]

Structures are written as SMILES. pEC50: −log10 of the molar value. Where a name gives a salt, the structure may show the parent alone. Read-outs that look alike come from different tables or passages of the source.

Drawing on US20080261977A1, “Pyrimidine Derivatives as Cannabinoid Receptor Modulators” (priority 2004, published 2008), this text covers EC50 and Emax for two compounds.

T2 sequence (P21554 whole entry): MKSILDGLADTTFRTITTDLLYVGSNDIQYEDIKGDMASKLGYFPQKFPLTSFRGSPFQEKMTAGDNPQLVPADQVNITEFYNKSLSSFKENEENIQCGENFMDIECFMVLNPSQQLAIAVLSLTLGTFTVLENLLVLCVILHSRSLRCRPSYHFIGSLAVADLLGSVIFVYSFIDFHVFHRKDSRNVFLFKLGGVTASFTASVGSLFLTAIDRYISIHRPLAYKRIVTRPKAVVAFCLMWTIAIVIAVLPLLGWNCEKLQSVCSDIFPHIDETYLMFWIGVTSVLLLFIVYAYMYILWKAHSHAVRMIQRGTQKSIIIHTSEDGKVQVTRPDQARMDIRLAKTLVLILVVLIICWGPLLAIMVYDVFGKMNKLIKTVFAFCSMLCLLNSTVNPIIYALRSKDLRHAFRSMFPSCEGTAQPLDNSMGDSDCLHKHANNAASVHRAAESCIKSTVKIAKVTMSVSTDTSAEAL
T1 sequence (P34972 whole entry): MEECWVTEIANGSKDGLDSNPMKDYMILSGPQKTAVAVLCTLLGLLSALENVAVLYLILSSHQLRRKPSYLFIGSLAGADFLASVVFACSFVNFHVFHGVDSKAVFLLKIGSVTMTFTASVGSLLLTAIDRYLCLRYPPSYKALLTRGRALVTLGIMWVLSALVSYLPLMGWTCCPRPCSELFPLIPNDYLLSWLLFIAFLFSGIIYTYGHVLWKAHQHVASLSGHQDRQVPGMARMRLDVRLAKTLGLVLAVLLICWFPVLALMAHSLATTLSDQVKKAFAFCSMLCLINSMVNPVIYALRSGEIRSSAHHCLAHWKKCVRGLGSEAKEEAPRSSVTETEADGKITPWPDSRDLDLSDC

In the case of `CC(NCC1CCCCC1)c1cnc(Nc2cccc(Cl)c2)nc1C(F)(F)F` (centres unmarked) [Example 89, (3-Chlorophenyl)-{5-[1-(cyclohexylmethyl-amino)-ethyl]-4-trifluoromethyl-pyrimidin-2-yl}-amine, formate], the pEC50 in assay [1] (yeast agonist assay, read-out: EC50 at the cloned human cannabinoid CB2 receptor) is above 6.52; in assay [2] (yeast agonist assay, read-out: EC50 at the cloned human CB1 receptor) it was 6.00 to 6.52. For the same compound, the maximal effect (Emax) is above 50% in assay [1] (yeast agonist assay) and 50 to 100% in assay [2].
With `CC(NCC1CCOCC1)c1cnc(Nc2ccc(Cl)cc2Cl)nc1C(F)(F)F` (centres unmarked) [Example 91, (2,4-Dichlorophenyl)-(5-{1-[(tetrahydro-pyran-4-ylmethyl)-amino]-ethyl}-4-trifluoromethyl-pyrimidin-2-yl)-amine], in assay [1], the negative logarithm of the EC50 (pEC50) is above 6.52 and the maximum response (Emax) is above 50%. Besides, in assay [2], the negative-log EC50 (pEC50) was 6.00 to 6.52 and the Emax was in the range of 50 to 100%.

As a reminder, the pEC50 is the negative decadic logarithm of the EC50, by convention in mol/L. In general, Emax refers to the greatest response seen or fitted, relative to the assay's reference.
